Laboratory results from patent US20200131144A1, “AMINE OR (THIO)AMIDE CONTAINING LXR MODULATORS” (Phenex-FXR GmbH, priority 2017, published 2020).

Experiments:
[1] = target: T1, GST-LXRβ ligand-binding domain (Homo sapiens, UniProt P55055, INS174Q); assay: TR-FRETβ activity assay (NCoA3 coactivator peptide recruitment); format: biochemical; settings: 1 μM 24(S)-25-epoxycholesterol as prestimulating agonist; inverse agonist unless *
T1 construct: amino acids 156-461; NP009052; made in house; host or cells: E. coli
T1 sequence (P55055 with tags, fused parts or gaps INS174Q limits assumed): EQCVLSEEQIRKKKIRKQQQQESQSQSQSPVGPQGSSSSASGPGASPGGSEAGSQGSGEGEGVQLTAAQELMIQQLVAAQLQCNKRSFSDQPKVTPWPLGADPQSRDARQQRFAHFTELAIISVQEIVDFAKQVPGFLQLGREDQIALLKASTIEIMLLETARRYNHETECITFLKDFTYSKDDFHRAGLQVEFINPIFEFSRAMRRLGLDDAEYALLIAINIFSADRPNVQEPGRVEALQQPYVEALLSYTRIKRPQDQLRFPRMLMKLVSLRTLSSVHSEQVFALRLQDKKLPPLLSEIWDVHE
Outline: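 E. coli-expressed GST-LXRβ LBD (aa 156-461, 76 nM) with biotinylated NCoA3 peptide (400 nM), anti-GST-Tb cryptate donor and streptavidin-XL665 acceptor in 240 mM KCl, BSA, 0.002% Triton X-100. Equilibrated 1 h at 4° C; TR-FRET read at 615/665 nm, triplicates.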

LXRα full length (FL) = target: T2, LXRα full length (FL) (Homo sapiens, UniProt Q13133); assay: LXR Gal4 reporter transient transfection assay, mammalian two-hybrid, FL-M2H Gal4α; format: cell-based; settings: HEK293 cells; inverse agonist unless *
T2 construct: the full length (FL) proteins of LXRα (amino acids 1-447); NP005684; expressed in transfected cells; host or cells: HEK293
T2 sequence (Q13133 1-447): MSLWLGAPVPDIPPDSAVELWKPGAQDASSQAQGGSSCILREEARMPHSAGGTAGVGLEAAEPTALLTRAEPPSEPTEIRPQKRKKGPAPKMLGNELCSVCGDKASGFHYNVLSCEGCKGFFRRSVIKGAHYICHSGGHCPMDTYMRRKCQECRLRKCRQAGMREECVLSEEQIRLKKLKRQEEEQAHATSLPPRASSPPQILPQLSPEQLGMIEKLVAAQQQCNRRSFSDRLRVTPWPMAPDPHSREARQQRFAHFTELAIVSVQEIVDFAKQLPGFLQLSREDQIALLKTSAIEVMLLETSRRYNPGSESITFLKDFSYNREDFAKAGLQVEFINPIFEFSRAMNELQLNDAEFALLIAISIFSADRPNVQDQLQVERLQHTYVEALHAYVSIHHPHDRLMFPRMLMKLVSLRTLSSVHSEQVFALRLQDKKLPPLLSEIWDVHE
Outline: (§1)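 HEK293 cells transiently cotransfected with NFkB-AD fusions of full-length or LBD LXRα/β, GAL4-DBD fusions of SRC1 coactivator or NCoR corepressor domains, GAL4-driven firefly luciferase and Renilla control. Compound added 4 h post-transfection (≤0.2% DMSO), 16 h incubation; firefly and Renilla luminescence read sequentially.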

LXRβ full length (FL) = target: T3, LXRβ full length (FL) (Homo sapiens, UniProt P55055, INS174Q); assay: LXR Gal4 reporter transient transfection assay, mammalian two-hybrid, FL-M2H Gal4β; format: cell-based; settings: HEK293 cells; inverse agonist unless *
T3 construct: the full length (FL) proteins of LXRα (amino acids 1-447); NP005684; NP009052; expressed in transfected cells; host or cells: HEK293
T3 sequence (P55055 with tags, fused parts or gaps INS174Q): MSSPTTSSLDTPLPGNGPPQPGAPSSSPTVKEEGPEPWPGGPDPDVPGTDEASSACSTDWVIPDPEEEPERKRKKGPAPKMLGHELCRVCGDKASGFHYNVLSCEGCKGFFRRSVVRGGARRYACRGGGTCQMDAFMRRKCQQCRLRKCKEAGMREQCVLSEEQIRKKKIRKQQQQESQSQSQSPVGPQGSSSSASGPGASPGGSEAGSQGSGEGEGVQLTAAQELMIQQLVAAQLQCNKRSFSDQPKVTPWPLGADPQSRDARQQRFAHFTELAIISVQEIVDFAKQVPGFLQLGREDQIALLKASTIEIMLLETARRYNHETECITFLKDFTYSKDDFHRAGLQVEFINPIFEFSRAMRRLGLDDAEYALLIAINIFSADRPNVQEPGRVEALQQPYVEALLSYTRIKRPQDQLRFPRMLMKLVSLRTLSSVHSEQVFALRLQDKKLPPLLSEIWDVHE
Outline: as §1

Row | Structure (SMILES) | EC50 [1] | EC50 (LXRα full length (FL)) | EC50 (LXRβ full length (FL)) | FRETβ [1]
1 | Cc1ccc2ccccc2c1C(=O)N(Cc1ccc(-c2cccc(C(C)(N)C(=O)O)c2)cc1)Cc1ccc(C(F)(F)F)o1 (stereo not drawn) [27/74] | 0.1 to 1 µM | 0.1 to 1 µM | < 0.1 µM | –
2 | Cc1ccc2ccccc2c1C(=O)N(Cc1ccc(-c2cccc(C3(C(=O)O)CC3)c2)cc1)Cc1ccc(C(F)(F)F)o1 [27/75] | 0.1 to 1 µM | < 0.1 µM | < 0.1 µM | –
3 | COc1nc(-c2cccc(C(C)(C)C(=O)O)c2)ccc1CN(Cc1ccc(C(F)(F)F)o1)C(=O)c1c(C)ccc2ccccc12 [27/77] | 1 to 10 µM | < 0.1 µM | < 0.1 µM | –
4 | CN1CCc2nc3ccccc3c(C(=O)N(Cc3ccc(-c4cccc(C(C)(C)C(=O)O)c4)cc3)Cc3ccc(C(F)(F)F)o3)c2C1 [27/80] | 0.1 to 1 µM | 0.1 to 1 µM | 0.1 to 1 µM | –
5 | Cc1ccc2ccccc2c1CN(Cc1ccc(-c2cccc(C(=O)C(=O)O)c2)cc1)Cc1ccc(C(F)(F)F)o1 [27/82] | 1 to 10 µM | 0.1 to 1 µM | 0.1 to 1 µM | –
6 | Cc1ccc2ccccc2c1C(=O)N(Cc1ccc(-c2cccc([C@H](C)C(=O)O)c2)cc1)Cc1cccc(C(F)(F)F)c1 [27/83] | < 0.1 µM | < 0.1 µM | < 0.1 µM | –
7 | Cc1ccc2ccccc2c1C(=O)N(Cc1ccc(-c2cccc([C@H](C)C(=O)O)c2)cc1)Cc1cccc(C#N)c1 [27/84] | 0.1 to 1 µM | < 0.1 µM | < 0.1 µM | –
8 | COc1cc(-c2cccc(C(C)(C)C(=O)O)c2)ncc1CN(Cc1ccc(C(F)(F)F)o1)C(=O)c1c(C)ccc2ccccc12 [27/85] | 1 to 10 µM | 0.1 to 1 µM | 0.1 to 1 µM | –
9 | Cc1ccc2cnccc2c1C(=O)N(Cc1ccc(-c2cccc(C(C)(C)C(=O)O)c2)cc1)Cc1ccc(C(F)(F)F)o1 [27/86] | < 0.1 µM | < 0.1 µM | < 0.1 µM | –
10 | Cc1ccc2ccccc2c1C(=O)N(Cc1ccc(C(F)(F)F)o1)Cc1ccc(-c2cccc(C(C)(C)C(=O)O)c2)nc1N [27/91] | 1 to 10 µM | 0.1 to 1 µM | < 0.1 µM | –
11 | Cc1c(C(=O)N(Cc2ccc(-c3cccc(C(C)(C)C(=O)O)c3)cc2)Cc2ccc(C(F)(F)F)o2)c2ccccc2n(C)c1=O [27/94] | 0.1 to 1 µM | < 0.1 µM | < 0.1 µM | –
12 | CC1=C(C(=O)N(Cc2ccc(-c3cccc(C(C)(C)C(=O)O)c3)cc2)Cc2ccc(C(F)(F)F)o2)c2ccccc2CC1 [27/95] | < 0.1 µM | < 0.1 µM | < 0.1 µM | –
13 | CC(C)(C(=O)O)c1cccc(-c2ccc(CN(Cc3ccc(C(F)(F)F)o3)C(=O)C3C(C)(C)CCC3(C)C)cc2)c1 [27/97] | – | < 0.1 µM | < 0.1 µM | C*
14 | Cc1cnc2ccccc2c1C(=O)N(Cc1ccc(-c2cccc(C(C)(C)C(=O)O)c2)cc1)Cc1ccc(C(F)(F)F)o1 [27/103] | < 0.1 µM | < 0.1 µM | < 0.1 µM | –
15 | Cc1nc2cccnc2c(C(=O)N(Cc2ccc(C(F)(F)F)o2)Cc2ccc(-c3cccc(C(C)(C)C(=O)O)c3)cc2C#N)c1C [27/109] | 1 to 10 µM | 0.1 to 1 µM | 0.1 to 1 µM | –
16 | Cc1cc(C(=O)N(Cc2ccc(-c3cccc(C(C)(C)C(=O)O)c3)cc2)Cc2ccc(C(F)(F)F)o2)c2ncccc2n1 [27/111] | 1 to 10 µM | 0.1 to 1 µM | < 0.1 µM | –
17 | Cc1nc2cccnc2c(C(=O)N(Cc2ccc(-c3cc(F)cc(C4(C(=O)O)CC4)c3)cc2)Cc2ccc(C(F)(F)F)o2)c1C [27/113] | 0.1 to 1 µM | < 0.1 µM | < 0.1 µM | –

Next, values leading:

Row | EC50 [1] | EC50 (LXRα full length (FL)) | EC50 (LXRβ full length (FL)) | FRETβ [1] | Structure (SMILES)
18 | 0.1 to 1 µM | < 0.1 µM | < 0.1 µM | – | CCc1nc2cnccc2c(C(=O)N(Cc2ccc(-c3cccc(C(C)(C)C(=O)O)c3)cc2)Cc2ccc(C(F)(F)F)o2)c1C [27/88]
19 | 1 to 10 µM | 0.1 to 1 µM | 0.1 to 1 µM | – | CCc1nc2ccncc2c(C(=O)N(Cc2ccc(-c3cccc(C(C)(C)C(=O)O)c3)cc2)Cc2ccc(C(F)(F)F)o2)c1C [27/89]
20 | 0.1 to 1 µM | < 0.1 µM | < 0.1 µM | – | Cc1nc2ccccc2c(C(=O)N(Cc2ccc(C(F)(F)F)o2)Cc2ncc(-c3cccc(C(C)C(=O)O)c3)cc2Cl)c1C (stereo not drawn) [27/90]
21 | 0.1 to 1 µM | 0.1 to 1 µM | < 0.1 µM | – | Cc1nc2ncccc2c(C(=O)N(Cc2ccc(-c3cccc(C(C)(C)C(=O)O)c3)cc2)Cc2ccc(C(F)(F)F)o2)c1C [27/92]
22 | 0.1 to 1 µM | 0.1 to 1 µM | 0.1 to 1 µM | – | CCOC(=O)c1ccc(CN(Cc2ncc(-c3cccc(C(C)C(=O)O)c3)cc2Cl)C(=O)c2c(C)c(C)nc3ccccc23)o1 (stereo not drawn) [27/98]
23 | 1 to 10 µM | 1 to 10 µM | 1 to 10 µM | – | CCNC(=O)c1ccc(CN(Cc2ncc(-c3cccc(C(C)C(=O)O)c3)cc2Cl)C(=O)c2c(C)c(C)nc3ccccc23)o1 (stereo not drawn) [27/99]
24 | > 10 µM | 1 to 10 µM | 1 to 10 µM | – | Cc1nc2ccccc2c(C(=O)N(Cc2ccc(C(=O)N(C)C)o2)Cc2ncc(-c3cccc(C(C)C(=O)O)c3)cc2Cl)c1C (stereo not drawn) [27/100]
25 | 0.1 to 1 µM | < 0.1 µM | < 0.1 µM | – | COc1cc(-c2cccc(C(C)(C)C(=O)O)c2)ccc1CN(Cc1ccc(C(F)(F)F)o1)C(=O)c1c(C)c(C)nc2ccccc12 [27/104]
26 | 0.1 to 1 µM | < 0.1 µM | < 0.1 µM | – | Cc1nc2ccccc2c(C(=O)N(Cc2ccc(C(F)(F)F)o2)Cc2ccc(-c3cccc(C(C)(C)C(=O)O)c3)cc2C#N)c1C [27/105]
27 | 0.1 to 1 µM | < 0.1 µM | < 0.1 µM | – | COc1cc(-c2cccc(C(C)(C)C(=O)O)c2)ccc1CN(Cc1ccc(C(F)(F)F)o1)C(=O)c1c(C)c(C)nc2cccnc12 [27/108]
28 | 0.1 to 1 µM | < 0.1 µM | < 0.1 µM | – | Cc1nc2cccnc2c(C(=O)N(Cc2ccc(-c3cccc(C(C)C(=O)O)c3)cc2)Cc2ccc(C(F)(F)F)o2)c1C (stereo not drawn) [27/110]
29 | 0.1 to 1 µM | < 0.1 µM | < 0.1 µM | – | Cc1nc2cccnc2c(C(=O)N(Cc2ccc(-c3cccc(C4(C(=O)O)CC4)c3)cc2)Cc2ccc(C(F)(F)F)o2)c1C [27/112]
30 | 0.1 to 1 µM | < 0.1 µM | < 0.1 µM | – | Cc1nc2cccnc2c(C(=O)N(Cc2ccc(C(F)(F)F)o2)Cc2ccc(-c3cccc(C(C)(C)C(=O)O)c3)cc2F)c1C [27/114]
